# Reference: the Deep4Chem optical property database
# Where “and” joins values, the source holds several entries; their conditions need not be identical. Equal values may be shown once.
# Assay: solvent given as SMILES
smiles,measurement,setting,value
F[B-]1(F)n2c(-c3ccccc3)c3ccc4ccccc4c3c2N=C2c3c(ccc4ccccc34)C(c3ccccc3)=[N+]21,emission maximum,in ClCCl,753 nm
Brc1ccc(-c2nc(-c3ccc(C#Cc4ccc(-n5c6ccccc6c6ccccc65)cc4)cc3)nc(-c3ccc(C#Cc4ccc(-n5c6ccccc6c6ccccc65)cc4)cc3)n2)cc1,emission maximum,in C1CCOC1,465 nm
same,emission maximum,in CC#N,563 nm
same,emission maximum,in CCCCCC,411 nm
same,emission maximum,in Cc1ccccc1,432 nm
same,emission maximum,in ClCCl,498 nm
CCC(C)(C)c1ccc2c(c1)C(CC)(CC)c1cc(-c3ccc(-c4ccc5c(c4)C(CC)(CC)c4cc(C(C)(C)CC)ccc4-5)cc3)ccc1-2,emission maximum,in C1CCCCC1,381 nm
NCCCCCCCCCCCCN1C(=O)c2ccc3c4ccc5c6c(ccc(c7ccc(c2c37)C1=O)c64)C(=O)N(c1ccc(O)cc1)C5=O,emission maximum,in CN(C)C=O,534 nm
CC(C)[Si](C#Cc1c2ccccc2c(C#C[Si](C(C)C)(C(C)C)C(C)C)c2nc3c(nc12)C1c2ccccc2C3c2ccccc21)(C(C)C)C(C)C,emission maximum,in CCCCCC,464 nm
CCN(CC)c1ccc2c(c1)oc(=O)c1cc3c(-c4ccccc4)nn(-c4ccccc4)c3nc12,emission maximum,in ClCCl,509 nm
CCN(CC)c1cccc2c1ccc1c(=O)oc(-c3ccc(C(F)(F)F)cc3)cc12,emission maximum,in CC(C)=O,604 nm
same,emission maximum,in CCCCCC,469 nm
same,emission maximum,in CCCCCCCCO,561 nm
same,emission maximum,in CCCCO,578 nm
same,emission maximum,in CCCO,587 nm
same,emission maximum,in CCO,599 nm
same,emission maximum,in CCOC(C)=O,568 nm
same,emission maximum,in CN(C)C=O,613 nm
same,emission maximum,in CO,604 nm
same,emission maximum,in ClC(Cl)Cl,542 nm
Nc1ccc(/C=C2\OC(=O)c3ccccc32)cc1,emission maximum,in CC#N,547.95 nm
same,emission maximum,in CC(C)=O,390.02 nm
same,emission maximum,in CC(C)CO,547.65 nm
same,emission maximum,in CC(C)O,548.25 nm
same,emission maximum,in CCCO,549.75 nm
same,emission maximum,in CCO,552.49 nm
same,emission maximum,in CCOC(C)=O,503.52 nm
same,emission maximum,in CCOCC,485.91 nm
same,emission maximum,in CO,552.49 nm
COc1ccc(-c2[nH]c(=O)n3c2-c2ccccc2C3=O)c(OC)c1,emission maximum,in CC#N,492 nm
same,emission maximum,in CO,507 nm
same,emission maximum,in ClCCl,488 nm
CCC1=C(C)C2C(c3ccc(-c4ccc(-c5nc6c7ccccc7c7ccccc7c6n5-c5ccc(C(C)(C)C)cc5)cc4)cc3)c3c(C)c(CC)c(C)n3[B-](F)(F)[N+]2=C1C (stereo unspecified),emission maximum,in ClC(Cl)Cl,556 nm
Oc1ccccc1/C=N/N=C/c1ccccc1O,emission maximum,in CC#N,588.24 nm
same,emission maximum,in CC(C)CCCC(C)CCCC(C)CCCCC(C)CCCC(C)CCCC(C)C,583.09 nm
same,emission maximum,in CCCCCC,578.03 nm
same,emission maximum,in CCCCCCCCC,581.4 nm
same,emission maximum,in CCCCCCCCCCCCCCCC,581.4 nm
same,emission maximum,in CCCCl,584.8 nm
same,emission maximum,in CCN(CC)CC,576.37 nm
same,emission maximum,in CCO,579.71 nm
same,emission maximum,in CCOCC,588.24 nm
same,emission maximum,in CO,573.07 nm
same,emission maximum,in OC(C(F)(F)F)C(F)(F)F,571.43 nm
same,emission maximum,in OCC(F)(F)F,573.07 nm
same,emission maximum,in OCCO,584.8 nm
CCN(CC)c1ccc(-c2nc(Oc3ccc(-c4nc5ccccc5s4)cc3)nc(Oc3ccc(-c4nc5ccccc5s4)cc3)n2)cc1,emission maximum,in CN(C)C=O,419 nm
Cc1ccc2cc3c(=O)n(C)c(=O)n(C)c3nc2c1,emission maximum,in CC#N,405 nm
same,emission maximum,in CC(C)O,408 nm
same,emission maximum,in CCO,409 nm
same,emission maximum,in CO,409 nm
same,emission maximum,in ClC(Cl)Cl,406 nm
same,emission maximum,in ClCCl,405 nm
CC1=CC(C)=[N+]2C1=C(c1c3ccccc3c(C)c3ccccc13)c1c(C)cc(C)n1[B-]2(F)F,emission maximum,in CC#N,518 nm
same,emission maximum,in CCCCCC,512 nm
same,emission maximum,in CCO,516 nm
same,emission maximum,in CN(C)C=O,519 nm
same,emission maximum,in Cc1ccccc1,517 nm
same,emission maximum,in ClCCl,519 nm
CCCCN1C(=O)C2=C(c3ccc(-c4ccc5c(c4)C(C)(C)c4ccccc4-5)cc3)[N-]C(=O)C2=C1c1ccc(-c2ccc3c(c2)C(C)(C)c2ccccc2-3)cc1,emission maximum,in ClCCl,635 nm
c1ccc(-c2cc(-c3ccccc3)cc(-c3ccc4c(c3)C3(c5cc(-c6cc(-c7ccccc7)cc(-c7ccccc7)c6)ccc5-4)c4ccccc4-c4c3c3c5ccccc5ccc3c3ccccc43)c2)cc1,emission maximum,in C1CCOC1,420 nm
O=c1cc(-c2ccccc2)oc(-c2ccc(-c3nc4ccccn4c3NC3CCCCC3)cc2)c1,emission maximum,in ClCCl,508 nm
OCCSc1cccc2[n+]1[B-](F)(F)n1c(c3cccc4cccc1c43)=N2,emission maximum,in C1CCOC1,505 nm
same,emission maximum,in CC#N,502 nm
same,emission maximum,in CCCCCC,497 nm
same,emission maximum,in Cc1ccccc1,505 nm
same,emission maximum,in ClCCl,501 nm
O=c1oc2ccc3ccccc3c2nc1-c1ccccc1,emission maximum,in CC#N,475 nm
same,emission maximum,in CCCCCC,453 nm
same,emission maximum,in CO,476 nm
same,emission maximum,in c1ccccc1,467 nm and 460 nm
